These are literature values, as cited in paper PMC7845544 (Frontiers in Pharmacology, 2021).

SMILES strings stand for the structures. pEC50: −log10 of the molar value.

The test system of one series is women. Also noted: method as in Gerrits et al., 2016. The conditions noted are these: up to 40 mg/day; ref Gerrits et al., 2016; cited from earlier work.
A further series concerns human FSHR. Further details: method as in Gerrits et al., 2016. The note with it: ref Gerrits et al., 2016; read-out: human FSHR-AA EC50; cited from earlier work.
For another series, the target named is TSH receptor. Further details: method as in Gerrits et al., 2016. The conditions noted are these: ref Gerrits et al., 2016, cited from earlier work.
The next series deals with monkeys. Further details: method as in Gerrits et al., 2016. The conditions noted are these: ref Gerrits et al., 2016, cited from earlier work.
On the set-up of series [1]: method as in Ghobadi et al., 2009. The note with it: ref Ghobadi et al., 2009; cited from earlier work.

As a reminder, the pEC50 is the EC50 on a negative log10 scale, so that one unit is a factor of ten. For the compound `COc1cc2c(cc1CC(C)C)-c1c(-c3cccs3)cc(C(=O)N(C)C(C)(C)C)n1CC2` [MK-8389], the “follicular growth in human phase one study” value with women was “failed to induce follicular growth”. The pEC50 in the series with human FSHR was 8.38. At TSH receptor (read-out: TSH receptor EC50), the negative logarithm of the EC50 (pEC50) was 6.47. The TSHR/FSHR in the series with TSH receptor is reported as 81. Besides, in the series on monkeys, the “dose for thyroid follicular cell hypertrophy” value was 23 mg/kg; the “fold separation between ovarian and thyroid stimulation” value is 10 fold. The “dose required for folliculogenesis” value with monkeys (twice daily) is on record as 2.25 mg/kg.
For the compound `CCN(CC)CCOc1ccc(C(=C(Cl)c2ccccc2)c2ccccc2)cc1` [clomiphene], in series [1], the elimination from blood is at least 72 h.
